Experimental data published in patent publication US9045563B2, “CXC chemokine receptor 4 (CXCR4) antagonistic polypeptide” (priority 2007, dated 2015).
Read-outs that look alike come from different tables or passages of the source. Ends that are not written are not given here.

Columns and labels:
[1] = Isoelectric point of the peptide; type: physicochemical
[2] = system: CCR5 tropic HIV-1 NL4-3 92th014, HIV-1-7312 and SIVmac239; assay: Infection of TZM-bl cells by R5 tropic lentiviruses; type: cell-based, SIV
[3] = biological target: T1, CXCR1 (Homo sapiens, UniProt P25024); assay: Ca2+ mobilization in HEK EGFP-CXCR1 cells (indo-1); conditions: 50 μM peptide
T1 sequence (P25024 1-350): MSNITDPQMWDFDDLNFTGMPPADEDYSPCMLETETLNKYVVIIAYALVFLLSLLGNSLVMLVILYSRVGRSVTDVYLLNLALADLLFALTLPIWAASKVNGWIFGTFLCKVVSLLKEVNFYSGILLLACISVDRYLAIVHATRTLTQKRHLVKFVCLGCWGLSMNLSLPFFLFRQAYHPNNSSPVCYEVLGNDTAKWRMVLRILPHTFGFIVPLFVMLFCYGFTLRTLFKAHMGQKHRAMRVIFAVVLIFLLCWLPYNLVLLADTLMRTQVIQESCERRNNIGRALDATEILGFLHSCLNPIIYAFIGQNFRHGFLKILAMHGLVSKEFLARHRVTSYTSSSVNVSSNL
Protocol: Intracellular Ca^2+ release measurement was carried out as described (Palanche et al., 2001, JBC 276:34853-34861; Vollmer et al., 1999, JBC 274:37915-37922) using indo-1 acetoxymethyl ester as the calcium probe. Cellular responses were recorded at 37° C. in stirred 1 mL cuvette with excitation set at 355 nm and emission set at 405 nm and 475 nm using a spectrofluorimeter. The human chemokines CCL5 and CXCL8 were purchased from Becton Dickinson Biosciences (San Jose, Calif.).
Intracellular Ca^2+ responses were measured using a spectrofluorimeter.
Values shown are mean calcium peak responses from duplicate experiments relative to chemokine only treated cells (100%).
Ca^2+ responses were recorded. […] In order to gain insight into compound selectivity, we next characterized the effect of the peptide on calcium responses of various chemokine/receptor pairs.

[4] = system: X4 tropic HIV-2ROD10; conditions: read-out: IC50, X4 tropic HIV-2 infection (Example 5), TZM-bl cells
Protocol: Two days later infection rates were determined and calculated as described.
After three days infection rates were determined using the Gal Screen assay. Shown are mean values±standard deviation derived from triplicate measurements.

[5] = biological target: CXCR4 (Homo sapiens, UniProt P61073); assay: Ca2+ mobilization in CXCR4 expressing HEK293 cells (indo-1); type: cell-based; parameters: expressed in transfected cells
Sequence of CXCR4 (P61073 whole entry): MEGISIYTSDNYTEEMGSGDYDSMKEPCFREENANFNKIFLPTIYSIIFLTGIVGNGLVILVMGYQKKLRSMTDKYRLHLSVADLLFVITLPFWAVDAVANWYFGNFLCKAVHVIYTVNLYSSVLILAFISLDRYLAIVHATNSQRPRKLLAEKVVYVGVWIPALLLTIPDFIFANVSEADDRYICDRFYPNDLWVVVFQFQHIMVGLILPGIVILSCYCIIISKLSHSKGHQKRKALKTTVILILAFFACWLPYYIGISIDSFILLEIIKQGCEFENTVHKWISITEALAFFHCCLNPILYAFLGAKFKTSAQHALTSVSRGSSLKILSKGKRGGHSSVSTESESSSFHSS
Protocol: (§1) Ca^2+ responses were recorded.
(§2) FIG. 17. CXCR4 antagonistic activities of ALB derivatives. […] CXCR4 or CCR5 expressing HEK293 cells were treated with CXCR4 agonist CXCL12 (10 nM) or CCR5 agonist CCL5 (20 nM), respectively, in the absence (no ALB) or presence of indicated ALB derivatives (50 μM). Calcium responses were recorded as described. Data shown are mean values±standard deviation derived from duplicates relative to peak calcium responses after treatment with agonists only (100%). […] CXCR4 expressing HEK293 cells were treated with Texas Red labeled CXCL12 (CXCL12-Tr) in the presence or absence of ALB peptides. Real-time fluorescence monitoring of ligand-receptor interactions was carried out as described. Shown are bound CXCL12-Tr levels in the presence of ALB peptides relative to CXCL12-Tr only treated cells (100% bound). Values were derived from a duplicate experiment.

[6] = biological target: T2, CCR5 (Homo sapiens, UniProt P51681); assay: Ca2+ mobilization in HEK CCR5 cells (indo-1); type: cell-based; conditions: 50 μM peptide
T2 construct: expressed in transfected cells; host or cells: HEK293
T2 sequence (P51681 whole entry): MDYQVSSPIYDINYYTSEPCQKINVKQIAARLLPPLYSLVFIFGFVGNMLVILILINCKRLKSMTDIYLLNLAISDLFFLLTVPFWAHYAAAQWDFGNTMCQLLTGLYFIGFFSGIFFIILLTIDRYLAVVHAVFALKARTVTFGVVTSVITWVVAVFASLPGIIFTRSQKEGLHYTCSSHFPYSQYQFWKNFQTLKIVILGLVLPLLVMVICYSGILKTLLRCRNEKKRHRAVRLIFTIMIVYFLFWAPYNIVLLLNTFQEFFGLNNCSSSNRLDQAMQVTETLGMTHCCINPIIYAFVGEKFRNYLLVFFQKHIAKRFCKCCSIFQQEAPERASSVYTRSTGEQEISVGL
Protocol: as §1, §2

[7] = system: X4 tropic HIV-1 NL4-3; conditions: TZM-bl cells
Protocol: HIV inhibition test were performed by seeding 4000 P4-R5 MAGI cells (P. Charneau et al., J. Mol. Biol. 241: 651, 1994) in 100 μl of DMEM (10% FCS, 100 U/ml penicillin G, and 100 μg/ml streptomycin sulfate). P4-R5 cells are stably transfected with an LTR-lacZ cassette and upon successful infection by HIV-1 will express—galactosidase in a Tat-dependent manner, which can be detected in a chemiluminescence test. On the following day, aliquots of the fractions were added. Therefor the lyophilized fractions were resuspended in 80 μl of DMEM, and 25 μl each thereof was pipetted to P4-R5 cells, incubated at 37° C. for 1 hour and subsequently infected with HIV-1 NL4—3 (1 ng of p24 antigen). Virus stocks were obtained by transient infection of 293T cells with proviral DNA by the calcium phosphate method (CalPhos™ Mammalian Transfection Kit, Clontech). Virus stocks were harvested 48 hours post transfection, filtrated and used for infection. Three days post infection, β-galactosidase activity in infected P4-R5 cells was detected using GalScreen assay (TROPIX) as recommended by the manufacturer. Briefly, supernatant was removed, 40 μl of a 1:1 dilution of PBS/GalScreen+substrate was added, followed by incubation at room temperature for 30 min. Then 30 μl of the lysates were transferred into 96 well lumiplates. Subsequently, the lumines-cence was detected as relative light units per second in a luminometer (Berthold, ORION). From all measurements, the mean β-galactosidase background activity of non-infected control cells was subtracted. % infection values for each infection were calculated relative to no peptide containing controls (100%). The enzyme activities in measurements without ALB408-423 were set at 100%, and all other values were based thereon. The final purification (7th step) was examined under exactly the same conditions in TZM-bl cells (X. Wei et al., Antimicrob. Agents Chemother. 46: 1896, 2002).
1.6 mg of fraction 31 from the 7th step in Example 1 was dissolved in 160 μl of DMEM. Subsequently, 10 μl of serial dilutions of fraction 31 containing ALB408-423 were added to 60 μl of TZM-bl cells (60 μl) and infected with 1 ng of p24 antigen HIV-1 NL4—3 in a total volume of 100 μl. Three days later, infection rates were determined in a GalScreen assay (see Example 1).
5000 TZM-bl cells were seeded in 100 μl of DMEM (10% FCS, 100 U/ml of penicillin G and 100 μg/ml of streptomycin sulfate). ALB408-423 was dissolved in PBS (10 mg/ml). One day later, 20 μl serial dilutions of ALB408-423 in PBS were added to cells and cells were subsequently infected with 0.5 ng of p24 antigen HIV-1 in a total volume of 200 μl. HIV-1 molecular clones differing in coreceptor tropism were used and generated as described (Papkalla et al., J. Virol. 76: 8455-9, 2002).
Table 1. Antiviral activity of various ALB fragments against X4 tropic HIV-1 NL4-3 infection. TZM-bl cells containing serial dilutions of synthetic peptides were infected with HIV-1 NL4-3 and infection rates were determined and calculated as described in example 1 and 2 at two days post infection. IC50 values were determined using the GraphPad Prism software package.
Various ALB408-423 derivatives containing N or C terminal deletions or amino acid substitutions (Table 1) were chemically synthesized and lyophilized peptides were dissolved in PBS. The antiviral activity was analyzed in TZM-bl cells using X4 tropic HIV-1 NL4-3 as described (example 4).

Question: With “LVRYTKKVPQVSTPTL [ALB408-423, LVRYTKKVPQVSTPTL]” as the sequence, how does the “isoelectric point (pI)” value [1] read?
Answer: 10.3

Question: And the “effect on R5 tropic lentiviral infection” value [2]?
Answer: no effect

Question: And the “effect on CXCL8-evoked calcium responses” value ([3]; HEK EGFP-CXCR1 cells)?
Answer: no effect

Question: What about the “agonism: calcium response induced by the peptide alone, CXCR1” value ([3]; no chemokine) of the same sequence?
Answer: does not induce any calcium response

Question: And the IC50 [4]?
Answer: 10 to 20 µM

Question: What about the Ki [5] of the same sequence?
Answer: 46.4 µM

Question: What about the “inhibition of CXCL12-evoked calcium responses” value ([5]; 50 μM peptide, HEK EGFP-CXCR4 cells) of the same sequence?
Answer: 70%

Question: And the “agonism: calcium response induced by the peptide alone, CXCR4” value ([5]; 50 μM peptide, no chemokine)?
Answer: does not induce any calcium response

Question: What about the “effect on CCL5-evoked calcium responses” value ([6]; HEK CCR5 cells) of the same sequence?
Answer: no effect

Question: What about the “agonism: calcium response induced by the peptide alone, CCR5” value ([6]; no chemokine) of the same sequence?
Answer: does not induce any calcium response

Question: And the IC50 ([7]; read-out: IC50, X4 tropic HIV-1 infection (Example 5), HIV-1 NL4-3)?
Answer: 10 to 20 µM

Question: And the IC50 ([7]; read-out: IC50 ± SEM, X4 tropic HIV-1 NL4-3, two days post infection, synthetic peptides)?
Answer: 7.6 ± 1.2 µM
